# Source: article PMC3920478, “Small molecule-mediated refolding and activation of myosin motor function” (eLife, 2014)
# Entries after “also recorded” stand apart in the source; their conditions may differ.
# Tests used:
# [1] = target: Skeletal muscle myosin-2 (HMM); assay: Steady-state basal and actin-activated Mg2+-ATPase (NADH-coupled assay); type: biochemical, Rabbit
# Protocol: Rabbit fast skeletal muscle heavy meromyosin (HMM) was prepared as described by [Margossian and Lowey (1982)]. Porcine β-cardiac myosin was prepared essentially as described by [Pant et al. (2009)] and [Jacques et al. (2008)] and further purified by gel filtration. S1 and HMM fragments were produced by proteolytic digestion of the full-length proteins with 0.05 mg/ml papain (10 min, 25°C) for S1 and with 0.1 mg/ml TLCK-treated α-chymotrypsin (15 min, 25°C) for HMM. Reactions were stopped with specific protease inhibitors for papain (10 µM E−64) and chymotrypsin (10 µM chymostatin, 1 mM benzamidine). Proteolytic fragments were further purified by actin-coprecipitation. Pellets were washed twice and myosin was extracted from the pellets using ATP containing buffer. Gel filtration was used to further increase purity of myosin S1 and HMM fragments. His-tagged motor domain constructs of Dd myosin-2, Dd myosin-1B, Dd myosin-1C, Dd myosin-1D, Dd myosin-1E, Dd myosin-5b fused to two Dd α-actinin repeats substituting the light-chain binding domains ([Anson et al., 1996]) were expressed in Dd AX3-ORF + cells and purified by Ni^2+-chelate affinity chromatography ([Manstein and Hunt, 1995]).
# Basal and actin-activated Mg^2+-ATPase activities were measured using the NADH-coupled assay described previously ([Furch et al., 1998]) adapted for higher throughput screens for a temperature controlled plate reader (Multiscan FC, Thermo Scientific, Waltham, MA) at 25°C. […] Control measurements were carried out in the absence of drug, as well as in the presence of according concentrations of the non-binding (−)-enantiomer EMD 57439 to account for possible absorption effects. […] Data points are mean values from 3 to 5 independent experiments. Error bars indicate standard deviations.
# [2] = target: T1, Dd myosin-2 ΔSH3 (Dictyostelium discoideum, UniProt P08799, DEL33-79); assay: In vitro motility assay (actin filament sliding); type: biochemical; settings: 100 µM EMD 57033
# T1 construct: Dd myosin-2 ΔSH3, a recombinant motor domain construct that lacks this subdomain; made in house
# From the text: Initial blind docking to homology models of the β-cardiac myosin motor domain in the post-rigor state indicated preferred binding of the drug to a region near the small N-terminal, SH3-like βbarrel subdomain. Important contacts are predicted to involve the SH3-like subdomain (residues 34–72) and two α-helices (residues 20–28 and 98–111). […] The sets of binding poses differ mainly in the orientation of the dimethylated catechol group, occupying either of the two possible branches of the Y, while the thiadiazinone moiety appears little affected and resides in the root of the Y shaped cavity (Figure 2A,B). Potential residues involved in the binding of the thiadiazinone and tetrahydroquinoline moieties of the compound include Arg23, Asp85, Lys86, Asp107, Arg108, and Ser111. The dimethylated catechol moiety is mainly bound by residues Lys34, Lys48, and Gln79, and thus, interacts with the SH3-like β-barrel.
# (§1) Actin-sliding motility was performed at 20°C using an Olympus IX81 (Olympus, Hamburg, Germany) inverted fluorescence microscope as described previously ([Fujita-Becker et al., 2005]). Average sliding velocities were determined from the Gaussian distribution of automatically tracked actin filaments using DiaTrack 3.01 (Semasopht, Chavannes, Switzerland) and Origin 7.0 (OriginLab Corporation, Northampton, MA). Errors indicate standard deviations.
# [3] = target: T2, β-cardiac myosin (Sus scrofa, UniProt P79293); assay: Frictional loading experiments with α-actinin (force production); type: biochemical, Porcine; parameters: β-Cardiac myosin-2 (S1, full-length); from tissue; host or cells: porcine cardiac muscle
# From the text: (§2) In addition, the fraction of moving filaments increased from <75% to >95%. […] In initial experiments, we determined the minimal concentration of α-actinin molecules that generate sufficient load to stall the movement of actin filaments for a given surface density of myosin heads. […] Next, we generated in vitro motility flow cells with actin filaments held at stall force. […] The time-dependence of the recovery of motile activity is best fit by a hyperbola. A plateau value of 0.4 μm s^−1 is reached after more than 2 hr (Figure 1G).
# Target sequence in this assay (P79293 whole entry): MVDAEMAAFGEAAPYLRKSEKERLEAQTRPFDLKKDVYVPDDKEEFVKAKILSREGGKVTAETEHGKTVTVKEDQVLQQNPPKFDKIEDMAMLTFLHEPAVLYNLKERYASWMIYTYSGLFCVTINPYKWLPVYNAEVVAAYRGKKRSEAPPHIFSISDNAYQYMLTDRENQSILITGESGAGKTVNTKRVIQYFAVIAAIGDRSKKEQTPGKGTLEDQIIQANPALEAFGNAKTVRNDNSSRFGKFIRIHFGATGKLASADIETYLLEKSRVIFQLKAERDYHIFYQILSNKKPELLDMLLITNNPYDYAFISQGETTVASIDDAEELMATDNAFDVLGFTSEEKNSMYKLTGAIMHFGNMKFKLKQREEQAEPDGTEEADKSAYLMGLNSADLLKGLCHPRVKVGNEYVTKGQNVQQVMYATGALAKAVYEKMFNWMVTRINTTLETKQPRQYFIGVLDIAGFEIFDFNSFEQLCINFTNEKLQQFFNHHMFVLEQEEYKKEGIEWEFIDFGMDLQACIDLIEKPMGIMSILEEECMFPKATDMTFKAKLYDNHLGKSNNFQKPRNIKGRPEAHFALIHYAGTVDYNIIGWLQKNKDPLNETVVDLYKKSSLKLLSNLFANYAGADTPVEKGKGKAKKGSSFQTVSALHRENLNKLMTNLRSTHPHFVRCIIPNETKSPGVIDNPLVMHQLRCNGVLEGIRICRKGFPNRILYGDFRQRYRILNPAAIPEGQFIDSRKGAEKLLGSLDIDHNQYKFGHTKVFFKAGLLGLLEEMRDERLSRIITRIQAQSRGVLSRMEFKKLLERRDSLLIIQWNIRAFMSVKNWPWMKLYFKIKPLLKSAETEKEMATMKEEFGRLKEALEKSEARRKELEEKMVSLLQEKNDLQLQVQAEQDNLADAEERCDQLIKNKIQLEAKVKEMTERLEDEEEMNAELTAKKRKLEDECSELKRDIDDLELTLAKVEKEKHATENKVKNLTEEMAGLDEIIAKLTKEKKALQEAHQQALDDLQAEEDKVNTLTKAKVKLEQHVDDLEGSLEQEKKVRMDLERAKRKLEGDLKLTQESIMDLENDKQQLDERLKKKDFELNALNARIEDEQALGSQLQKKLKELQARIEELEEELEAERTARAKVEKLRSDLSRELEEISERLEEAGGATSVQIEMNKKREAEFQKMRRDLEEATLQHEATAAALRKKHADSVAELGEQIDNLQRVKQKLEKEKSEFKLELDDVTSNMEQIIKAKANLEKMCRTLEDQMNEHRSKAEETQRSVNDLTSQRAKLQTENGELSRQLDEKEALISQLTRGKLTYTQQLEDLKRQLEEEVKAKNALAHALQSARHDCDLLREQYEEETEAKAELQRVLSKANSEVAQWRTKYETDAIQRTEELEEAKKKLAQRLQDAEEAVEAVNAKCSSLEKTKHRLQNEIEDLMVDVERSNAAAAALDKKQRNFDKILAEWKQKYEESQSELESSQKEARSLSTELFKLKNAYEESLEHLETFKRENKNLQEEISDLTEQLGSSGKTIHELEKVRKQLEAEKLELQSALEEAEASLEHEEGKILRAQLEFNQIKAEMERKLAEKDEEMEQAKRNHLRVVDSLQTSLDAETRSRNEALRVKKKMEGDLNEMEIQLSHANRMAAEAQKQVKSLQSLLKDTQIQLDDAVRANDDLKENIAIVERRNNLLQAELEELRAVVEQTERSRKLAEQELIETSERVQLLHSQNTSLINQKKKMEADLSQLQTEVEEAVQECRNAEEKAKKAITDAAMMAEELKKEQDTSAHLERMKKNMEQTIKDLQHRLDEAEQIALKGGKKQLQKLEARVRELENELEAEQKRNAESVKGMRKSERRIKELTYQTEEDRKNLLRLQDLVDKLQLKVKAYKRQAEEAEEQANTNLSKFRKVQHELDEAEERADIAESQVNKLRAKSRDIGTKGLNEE
# [4] = target: T2, β-cardiac myosin; assay: In vitro motility assay (actin filament sliding); type: biochemical, Porcine; parameters: β-Cardiac myosin-2 (S1, full-length); from tissue; host or cells: porcine cardiac muscle
# From the text: as §2, §1
# Target sequence in this assay (P79293 whole entry): as above
# [5] = target: T2, β-cardiac myosin; assay: Heat stress protection, storage and refolding of myosin; type: biochemical, Porcine; settings: for Competence to bind nucleotide (mantATP amplitude) preserved: 25 μM EMD 57033
# Protocol: The fraction of myosin that is able to bind mantATP drops to below 32% when the temperature is raised to 49°C for more than 5 min. Incubation for 10 min at 51°C removes the myosin completely and irreversibly from the soluble fraction. […] Moreover, based on the amplitude of the rise in mantATP fluorescence, the competence of β-cardiac myosin to bind nucleotide is preserved to more than 91% after 5-min incubation at 49°C and to approximately 82% after 10-min incubation at 49°C (Figure 4B). […] This view is supported by experiments that monitor the recovery of basal activity over a 2 hr period (Figure 4C). To obtain more detailed information about the kinetics of the EMD 57033-mediated refolding reaction, we performed three sets of experiments recording the time and concentration dependence of EMD 57033-mediated increases in the fraction of myosin molecules that are able to undergo nucleotide induced conformational changes, hydrolyze ATP, and produce movement in the in vitro motility assay.
# Changes in intrinsic protein fluorescence are tightly linked to ATP binding and ATP-induced conformational changes in the myosin motor domain ([Batra and Manstein, 1999]). […] The dependence of the kobs values on the incubation time was best fit by a hyperbola (Figure 4E). […] The slope defines a value of 0.02 × 10^-3 μM^−1 s^−1 for the second order rate constant for the EMD 57033-mediated refolding reaction (Figure 4H).
# Target sequence in this assay (P79293 1-778 limits assumed): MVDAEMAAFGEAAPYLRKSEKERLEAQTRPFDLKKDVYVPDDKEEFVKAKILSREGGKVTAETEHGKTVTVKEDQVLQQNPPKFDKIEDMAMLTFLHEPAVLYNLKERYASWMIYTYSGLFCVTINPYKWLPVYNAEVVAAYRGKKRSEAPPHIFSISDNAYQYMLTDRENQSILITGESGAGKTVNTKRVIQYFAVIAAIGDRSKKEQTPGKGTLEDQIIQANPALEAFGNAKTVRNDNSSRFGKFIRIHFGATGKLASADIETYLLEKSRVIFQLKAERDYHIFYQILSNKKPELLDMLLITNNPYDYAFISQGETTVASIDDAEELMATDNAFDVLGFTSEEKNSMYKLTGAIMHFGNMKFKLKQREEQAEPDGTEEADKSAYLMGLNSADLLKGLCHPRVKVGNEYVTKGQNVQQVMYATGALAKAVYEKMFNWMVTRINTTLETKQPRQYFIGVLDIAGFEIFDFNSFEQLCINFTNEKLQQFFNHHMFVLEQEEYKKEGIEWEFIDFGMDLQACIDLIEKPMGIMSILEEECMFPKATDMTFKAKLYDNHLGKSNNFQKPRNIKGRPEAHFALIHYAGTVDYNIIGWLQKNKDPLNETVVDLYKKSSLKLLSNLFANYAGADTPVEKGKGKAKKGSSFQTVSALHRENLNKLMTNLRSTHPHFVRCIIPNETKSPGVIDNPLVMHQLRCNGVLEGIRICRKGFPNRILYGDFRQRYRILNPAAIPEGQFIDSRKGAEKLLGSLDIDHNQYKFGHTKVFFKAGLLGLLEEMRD
# [6] = 25 μM EMD 57033, 8 µg/ml α-actinin
# T1 sequence (P08799 other isoform, or with tags, fused parts or gaps DEL33-79): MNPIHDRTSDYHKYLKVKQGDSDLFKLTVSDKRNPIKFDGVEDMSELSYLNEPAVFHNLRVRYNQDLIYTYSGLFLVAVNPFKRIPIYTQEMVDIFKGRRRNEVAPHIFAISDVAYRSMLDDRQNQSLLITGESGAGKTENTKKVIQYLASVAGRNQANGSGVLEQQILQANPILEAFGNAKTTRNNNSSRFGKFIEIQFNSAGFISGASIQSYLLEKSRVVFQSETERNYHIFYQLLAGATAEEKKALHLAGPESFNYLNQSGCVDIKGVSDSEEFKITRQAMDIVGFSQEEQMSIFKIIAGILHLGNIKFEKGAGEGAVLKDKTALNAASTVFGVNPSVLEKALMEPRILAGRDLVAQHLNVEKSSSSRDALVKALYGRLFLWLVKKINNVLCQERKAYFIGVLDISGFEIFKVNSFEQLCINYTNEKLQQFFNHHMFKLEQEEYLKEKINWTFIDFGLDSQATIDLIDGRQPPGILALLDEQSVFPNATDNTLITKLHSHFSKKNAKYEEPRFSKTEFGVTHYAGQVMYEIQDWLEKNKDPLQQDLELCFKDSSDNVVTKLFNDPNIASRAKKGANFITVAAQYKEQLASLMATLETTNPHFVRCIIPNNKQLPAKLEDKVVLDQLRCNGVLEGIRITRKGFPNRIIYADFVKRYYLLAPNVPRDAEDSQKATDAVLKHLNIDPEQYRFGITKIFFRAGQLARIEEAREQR
smiles,measurement,setting,value
COc1ccc(C(=O)N2CCCc3cc(C4=NNC(=O)SC4C)ccc32)cc1OC (stereo not shown) [EMD 57033],AC50,[1],15.1 µM
same,Activation potency relative to β-cardiac myosin (weaker),[1],twofold
same,Normalized maximal ATPase activation (basal),[1],1.6
same,Normalized maximal ATPase activation (with 30 µM actin),[1]; 30 µM actin,2.2
same,Actin filament sliding velocity enhancement,[2],no actin filament sliding velocity enhancement was observed
same,Plateau value of recovered filament velocity at stall load,[3]; [6],0.4 μm s^−1
same,Time to reach plateau of recovered motility,[3]; [6],more than 2 hr
same,α-actinin concentration required to stall filament movement,[3]; in presence of EMD 57033,≥ 12 µg/mL
same,Increase of actin filament sliding velocity,[4],1.8 fold
same,Fraction of moving filaments,[4]; in presence of EMD 57033,> 95%
same,Shelf life of protein-functionalized surfaces,[5],from a couple of hours to several months
same,Shelf life of myosin at 4°C,[5]; 25 µM EMD 57033,extends the shelf life
same,Competence to bind nucleotide (mantATP amplitude) preserved,[5]; 5-min incubation at 49°C,more than 91%
same,Competence to bind nucleotide (mantATP amplitude) preserved,[5]; 10-min incubation at 49°C,approximately 82%
same,Recovery of ability to bind mantATP after heat inactivation,"[5]; 10 min at 49°C, then 25 µM EMD 57033",gradually recovered
same,First order dissociation rate constant for EMD 57033 (y-intercept),[5]; heat-treated β-cardiac myosin,0.00023 s⁻¹
same,Second order rate constant for the EMD 57033-mediated refolding reaction (krescue),"[5]; heat-treated β-cardiac myosin, 10–100 μM EMD 57033",20 M⁻¹ s⁻¹
same,Recovery of enzymatic activity of fully denatured myosin aggregates,[5]; incubation for 6 hr on ice or at 20°C,no detectable recovery of enzymatic activity
same,Precipitation / solubility of myosin under heat stress,"[5]; preincubation with 25 μM EMD 57033, 10-min incubation",remained in the supernatant over the entire temperature range tested; also recorded: prevents precipitation
